Laboratory results from US20220119399A1, “COMPOUNDS AND COMPOSITIONS THAT CAUSE MYCN AND/OR CMYC DEGRADATION AND METHODS OF USE THEREOF” (THE TRUSTEES OF COLUMBIA UNIVERSITY IN THE CITY OF NEW YORK, priority 2018, published 2022).
Entries after “also recorded” stand apart in the source; their conditions may differ.

How the values were obtained:
SK-N-Be2 cells = assay: Cell viability assay (CellTiterGlo) in SK-N-Be2 cells; format: cell-based, human; details: SK-N-Be2 cells
MYCN transcript = assay: RNASeq analysis of SK-N-Be2 cells, MYCN transcript; format: cell-based, human; details: 3 μM or 10 μM, 3 h and 6 h
Protocol: (§1) To uncover changes in gene expression that underpin responses to pomiferin and isopomiferin, RNASeq analysis of SK-N-Be2 cells was performed following treatment with the two active prenylated isoflavonoids as well as a null analog that served as a negative control. SK-N-Be2 cells were treated with either 3 μM or 10 μM of isopomiferin or pomiferin and sampled after 3 h and 6 h. […] By comparing the active to the null analogs, downstream analyses can focus on changes in gene expression associated with the MYCN signature.

TEAD4 transcript = assay: RNASeq analysis of SK-N-Be2 cells, TEAD4 transcript; format: cell-based, human; details: 3 μM or 10 μM, 3 h and 6 h
Protocol: as §1

MYCNA tumor xenografts = assay: Tumor growth of MYCNA tumor xenografts; format: in vivo, mouse; details: daily i.p. 20 mg/kg, 21 days, versus vehicle-only control
Protocol: 6-week old male mice were purchased from Charles River Laboratories, and housed in Columbia University's animal control barrier facilities, and mice were allowed one week to acclimate to their new environment. To establish tumor xenografts, 10×10^6 SK-N-Be2 cells were suspended in a 200 μL volume of 50% matrigel slurry. […] Mice were kept on standard chow diet (Purina), and their cage dressing changed twice weekly. Animals were investigated regularly for any sign of discomfort. […] To create the stock solution of isopomiferin, 5 mg of isopomiferin (MicroSource) was dissolved into 50 μL dimethyl sulfoxide (DMSO). To this 450 μL of cyclodextrin solution was added dropwise. Cyclodextrin is dissolved as a 50% w/v solution in 40% EtOH. It is important to add the cyclodextrin slowly and with continual mixing to solubilize the compound. This solution was added to one volume of PBS and filter-sterilized. This solution was then diluted to achieve appropriate concentrations for a 200 μL volume administration at 10 mg/kg to each mouse. The solution was administered to animals via intraperitoneal injection (i.p.). […]
The ability of the compounds to inhibit growth of MYCNA tumor xenografts was evaluated by treating tumor bearing mice with daily i.p. injections of 20 mg/kg isopomiferin or pomiferin. […] MYCN abundance was evaluated mid-experiment, following 14 days of treatment.

[1] = system: NCI-H69, NCI-H526, NCI-H4414 and A549 cells; assay: Cell viability of four lung cancer cell lines; format: cell-based; details: dose series
Protocol: Neuroblastoma (SK-N-Be2; IMR-32; NLF; SK-N-AS) and lung cancer cell lines (NCI-H69; NCI-H526; NCI-H441-4) were grown in Advanced RPMI medium (Life Technologies) supplemented with 10% FBS (Gibco), 1% GlutaMAX (Gibco), and 1% Penicillin/Streptomycin. A549 cells (NSCLC) was grown in F-12K medium (Gibco) with 10% FBS (Gibco), and 1% Penicillin/Streptomycin. Cell cultures were incubated at 37° C. with 5% CO2. For chemical screening, cells were trypsinized, counted and seeded into white opaque 384-well plates (Perkin Elmer) at a density of 1000 cells/well and incubated overnight. […] Cells were treated for 72 hrs, after which cell viability was determined using CellTiterGlo® luminescence assay, following the manufacturer's instructions (Promega). […] Cell viability data were analyzed and charted using PRISM v7.0 software (GraphPad). The dose-response curves were used to generate an inhibitory constant (IC50) value, which was averaged across the two cell lines from each subtype (ie: SK-N-AS and NLF as MESN NBL subtype; IMR-32 and SK-N-Be2 as MycN^AMP subtype). The IC50 values for each subtype were used to evaluate subtype selectivity of each compound, and identify compounds with enhanced potency in MycN^AMP NBL.

mTOR = mTOR (Homo sapiens, UniProt P42345); assay: Cell-free biochemical mTOR kinase assay
Protocol: (§2) Cell-free biochemical kinase assays were performed at Reaction Biology Corporation (Malvern, Pa.). In brief, kinase substrates were diluted into reaction buffer containing 20 mM Hepes (pH 7.5), 10 mM MgCl2, 1 mM EGTA, 0.02% Brij35, 0.02 mg/ml BSA, 0.1 mM Na3VO4, 2 mM DTT, 1% DMSO. Purified protein (CK2a1, CK2a2, or mTOR) was added to the substrate solution and gently mixed. Test compounds were diluted from 10 mM DMSO stock solutions into the reaction buffer using an Echo550 acoustic dispenser, followed by incubation at RT for 20 min. 33P-ATP (10 μCi/μL) was added to reaction mixture, following incubation for 2 h at RT. Reactions were then spotted onto P81 ion exchange paper and kinase activity was detected by filter binding method.

CK2a1 = target: T1, CK2a1 (Homo sapiens, UniProt P68400); assay: Cell-free biochemical CK2a1 kinase assay; details: for IC50: read-out: IC50 of CK2a kinase activity
T1 construct: purchased Reaction Biology Corporation (Malvern, Pa.)
T1 sequence (P68400 whole entry): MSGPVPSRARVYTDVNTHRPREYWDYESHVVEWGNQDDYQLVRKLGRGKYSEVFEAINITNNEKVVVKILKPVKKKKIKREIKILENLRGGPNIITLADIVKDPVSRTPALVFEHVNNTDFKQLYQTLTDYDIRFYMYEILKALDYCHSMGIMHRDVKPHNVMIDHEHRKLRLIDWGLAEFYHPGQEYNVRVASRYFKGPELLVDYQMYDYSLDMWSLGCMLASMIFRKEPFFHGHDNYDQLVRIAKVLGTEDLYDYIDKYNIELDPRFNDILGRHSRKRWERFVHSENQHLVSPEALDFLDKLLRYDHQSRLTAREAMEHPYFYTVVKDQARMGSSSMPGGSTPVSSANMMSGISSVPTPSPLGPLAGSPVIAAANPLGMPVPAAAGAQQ
Protocol: as §2

[2] = Metabolic stability in mouse liver microsomes; format: in vitro ADME
Protocol: Mouse liver microsomes (Xenotech) were diluted to 0.5 mg/mL in a solution containing 100 mM PBS buffer at 7.4 pH, an NADPH regenerating system (Promega), and test compounds at 20 μM. The mixture was incubated at 37° C. under gentle rotation for the indicated time points. The reaction was quenched by aliquoting 15 μL of solution into 60 μL ice-cold acetonitrile containing an internal standard. Test compounds were quantified by LC-MS using a system comprised of a Thermo Scientific Dionex Ultimate 3000 and a Bruker amaZon SL equipped with an electrospray ionization source controlled by a Bruker Hystar 3.2. Compounds were separated by injecting 20 μL of sample onto an Agilent Eclipse Plus C18 column (2.1×50 mm, […]) maintained at 20° C., with the flow rate set at 400 μL/min. Initial flow conditions were 60% solvent A (MilliQ H2O, 0.1% acetic acid), and 40% solvent B (HPLC-grade MeOH, 0.1% acetic acid). Solvent B was raised to 60% over 0.25 min and to 70% by 6.75 min. Solvent B was raised to 95% by 7 min and lowered back to 40% by 8 minutes; total run time was 9 min.

Row | SMILES | IC20 (SK-N-Be2 cells; determined empirically) [µM] | MYCN transcript abundance (RNASeq) (MYCN transcript) | TEAD4 transcript (RNASeq) (TEAD4 transcript) | tumor growth (MYCNA tumor xenografts) | sensitivity of MycN-expressing versus non-expressing lung cancer lines (cell viability) [1] | mTOR kinase activity (mTOR) | IC50 (CK2a1) [µM] | compound remaining in mouse liver microsomes ([2]; mouse, microsomes, 2 h) [%] | inhibition of SK-N-Be2 cell viability (rank or activity in words) (SK-N-Be2 cells; 72 hrs) | CK2a1 kinase activity (CK2a1) | compound remaining in mouse liver microsomes ([2]; 2 h incubation, 0.5 mg/mL microsomes) [%]
1 | CC1(C)C=Cc2c(c3c(c4c(=O)c(-c5ccc(O)c(O)c5)coc24)OC(C)(C)CC3)O1 [isopomiferin] | 10 | suppressed MYCN transcript abundance | did not affect TEAD4 | these differences were not significant | the MycN-expressing lines were more sensitive to isopomiferin treatment | did not directly inhibit mTOR kinase activity | ~7 | ~50 | – | – | –
2 | CC(C)=CCc1c2c(c3occ(-c4ccc(O)c(O)c4)c(=O)c3c1O)C=CC(C)(C)O2 [pomiferin] | – | suppressed MYCN transcript abundance | suppressed both MYCN and TEAD4 transcript | reduced rates of tumor proliferation that were significant from the vehicle-only control arm by day 19 | MycN-driven cell lines were more sensitive to the compound | – | ~7 | – | the most potent compound of the group; also recorded: the most potent inhibitor of viability | inhibiting both isoforms equally in a concentration-dependent manner | ~80
